Measured values as given in EP1388586A2, “Identification of broadly reactive DR restricted epitopes” (priority 1998, dated 1999).
Where two headings read alike, the source gives them in different places. Square brackets hold non-standard residues; d marks the D form. Ends that are not written are not given here. Peptide text beside a SMILES is read from it.

What was measured:
DRB1*1101 (DR5w11) = biological target: T1, DRB1*1101 (DR5w11) (Homo sapiens, UniProt P01903+P01911, A100R/A169T/A87E/I96F/K41T/L162R/M171V/P40S/Q125H/Q178H/Q39Y/Q99D/R42S/S66Y/T262R/V115G/W38E); test: Class II peptide-binding assay, DR5w11;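 also: competition by unlabeled test peptide against iodinated probe peptide binding to affinity-purified HLA-DR, class II amount titrated beforehand, half-maximal inhibitory concentration read as approximate Kd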
T1 construct: used as sources of human HLA class II molecules; endogenous in cells; host or cells: SWEIG (EBV-transformed homozygous B cell line)

DRB1*0401 (DR4w4) = biological target: T2, DRB1*0401 (DR4w4) (Homo sapiens, UniProt P01903+P01911, A100K/A169T/F76Y/I96L/K127E/L162R/M171V/N62H/P40V/Q125Y/R42H/S133A/S149N/S66Y/V115G/V209L/W38E); test: Class II peptide-binding assay, DR4w4;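 also: unlabeled test peptides compete with a radiolabeled probe peptide for binding to affinity-purified HLA-DR, with DR amount titrated to capture a small fraction of label, IC50 approximating Kd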
T2 construct: used as sources of human HLA class II molecules; endogenous in cells; host or cells: PREISS (EBV-transformed homozygous B cell line)

DRB5*0101 (DR2w2a) = biological target: T3, DRB5*0101 (DR2w2a) (Homo sapiens, UniProt P01903+Q30154); test: Class II peptide-binding assay, DR2w2a (DR2w2B2);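 also: competitive binding assay: unlabeled peptide inhibiting binding of a radiolabeled probe peptide to purified DR molecules at pH 7.0, IC50 approximating Kd, lower means stronger binding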
T3 construct: used as sources of human HLA class II molecules; endogenous in cells; host or cells: GM3107 (EBV-transformed homozygous B cell line)
Protocol: (§1) Class II peptide-binding assays. […] These assays were chosen as to be representative of the most common DR alleles.
Radiolabeled peptides were iodinated using the chloramine-T method. […] In appropriate stoichiometric conditions, the IC50 of an unlabeled test peptide to the purified DR is a reasonable approximation of the affinity of interaction (Kd). Peptides were tested in two to four completely independent experiments. […] Final detergent concentration in the incubation mixture was 0.05% Nonidet P-40. Assays were performed at pH 7.0 with the exception of DR3, which was performed at pH 4.5, and DRw53, which was performed at pH 5.0.
(§2) All subsequent inhibition and direct binding assays were the performed using these class II concentrations.

DRB1*0701 (DR7) = DRB1*0701 (DR7) (Homo sapiens, UniProt P01903+P01911, A100R/A102G/A103Q/D57E/D86V/E43K/F76Y/K127E/L162R/M171V/P40G/Q125H/Q99D/R33Q/R42Y/R54Q/S133A/S66F/T210M/V115G/Y107V/Y59L/Y89S); test: Class II peptide-binding assay, DR7;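 also: unlabeled peptides compete with an iodinated probe peptide for binding to affinity-purified HLA-DR at neutral pH, DR amount titered to bind a small tracer fraction, IC50 approximating Kd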
DRB1*0101 (DR1) = biological target: T4, DRB1*0101 (DR1) (Homo sapiens, UniProt P01903+P01911, A100R/D57E/F55L/F60I/F76Y/I96L/L162R/M171V/P40L/Q125E/R42F/V115G/Y59C); test: Class II peptide-binding assay, DR1;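 also: competition assay: unlabeled test peptides inhibit binding of a radiolabeled probe peptide to purified DR, with half-maximal inhibition taken as an approximate dissociation constant Kd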
T4 construct: used as sources of human HLA class II molecules; endogenous in cells; host or cells: LG2 (EBV-transformed homozygous B cell line)

DRB10404 (DR4w14) = biological target: T5, DRB10404 (DR4w14) (Homo sapiens, UniProt P01903+P01911, A100R/A169T/F76Y/I96L/K127E/L162R/M171V/N62H/P40V/Q125Y/R42H/S133A/S149N/S66Y/V209L/W38E); test: Class II peptide-binding assay, DR4w14;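 also: unlabeled peptides compete with a radiolabeled probe for binding to affinity-purified HLA-DR, neutral pH, class II amount titrated to bind a small fraction of label, IC50 approximates Kd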
T5 construct: used as sources of human HLA class II molecules; endogenous in cells; host or cells: BIN40 (EBV-transformed homozygous B cell line)

DRB1*0301 (DR3w17) = biological target: T6, DRB1*0301 (DR3w17) (Homo sapiens, UniProt P01903+P01911, A100K/A102G/A103R/A169T/F55Y/I96L/K41T/L162R/M171V/P40S/Q125H/Q178H/Q39Y/R42S/S66N/T106N/T262R/W38E/Y61H); test: Class II peptide-binding assay, DR3 (pH 4.5);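 also: unlabeled peptide competing with a radiolabeled probe peptide for binding to affinity-purified HLA-DR3, IC50 regarded as an approximation of Kd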
T6 construct: used as sources of human HLA class II molecules; endogenous in cells; host or cells: MAT (EBV-transformed homozygous B cell line)
Protocol: as §1
In appropriate stoichiometric conditions, the IC50 of an unlabeled test peptide to the purified DR is a reasonable approximation of the affinity of interaction (Kd). Peptides were tested in two to four completely independent experiments. […] Final detergent concentration in the incubation mixture was 0.05% Nonidet P-40. Assays were performed at pH 7.0 with the exception of DR3, which was performed at pH 4.5, and DRw53, which was performed at pH 5.0.
as §2

[1] = read-out: DR5w11 nM (In IC50 Format), purified HLA DR5w11
[2] = read-out: DR4w4 nM (In IC50 Format), purified HLA DR4w4
[3] = read-out: DR2w2B2 nM (In IC50 Format), purified HLA DR2w2β2
[4] = read-out: DR7 nM (In IC50 Format), purified HLA DR7
[5] = read-out: DR1 nM (In IC50 Format), purified HLA DR1
[6] = read-out: DR4w14 nM (In IC50 Format), purified HLA DR4w14
[7] = read-out: DR3 nM (In IC50 Format), purified HLA DR3

T1 sequence (P01903 26-254, other chains not shown): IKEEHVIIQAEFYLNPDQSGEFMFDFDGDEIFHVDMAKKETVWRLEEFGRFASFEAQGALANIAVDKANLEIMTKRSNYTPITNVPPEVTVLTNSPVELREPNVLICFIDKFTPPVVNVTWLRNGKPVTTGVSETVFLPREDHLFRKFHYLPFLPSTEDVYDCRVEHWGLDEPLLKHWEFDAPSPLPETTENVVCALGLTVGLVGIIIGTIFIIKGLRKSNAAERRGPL
T6 sequence (P01903 26-254, other chains not shown): as above

Compound | IC50 (DRB1*1101 (DR5w11); [1]) | IC50 (DRB1*0401 (DR4w4); [2]) | IC50 (DRB5*0101 (DR2w2a); [3]) | IC50 (DRB1*0701 (DR7); [4]) | IC50 (DRB1*0101 (DR1); [5]) | IC50 (DRB10404 (DR4w14); [6]) | IC50 (DRB1*0301 (DR3w17); [7]) | other results
LVEALYLVSGERGFFYTPKT [Peptide 734.03] | 2.5 µM | 1.15 µM | 1.82 µM | 0.926 µM | 0.0397 µM | 0.704 µM | 1.57 µM | 
VHHANENIFYCPIAIMSALA [Peptide 703.03] |  |  |  |  |  |  |  | IC50 (DRB1*1101 (DR5w11); read-out: In IC50 Format DR5w11, Table VIII): 1.11 µM; IC50 (DRB1*0401 (DR4w4); read-out: In IC50 Format DR4w4, Table VIII): 0.0633 µM; IC50 (DRB5*0101 (DR2w2a); read-out: In IC50 Format DR2w2β2, Table VIII): > 10 µM; IC50 (DRB1*0701 (DR7); read-out: In IC50 Format DR7, Table VIII): > 6.25 µM; IC50 (DRB1*0101 (DR1); read-out: In IC50 Format DR1, Table VIII): 0.147 µM; IC50 (DRB10404 (DR4w14); read-out: In IC50 Format DR4w14, Table VIII): 0.333 µM; IC50 (DRB1*0301 (DR3w17); read-out: In IC50 Format DR3, Table VIII): 42.9 µM
CC[C@H](C)[C@H](NC(=O)[C@H](CCCNC(=N)N)NC(=O)[C@H](CO)NC(=O)[C@H](Cc1ccccc1)NC(=O)[C@@H](NC(=O)[C@H](CO)NC(=O)[C@H](CO)NC(=O)[C@H](CC(C)C)NC(=O)[C@@H]1CCCN1C(=O)[C@H](CO)NC(=O)[C@H](C)NC(=O)[C@@H](NC(=O)[C@@H](NC(=O)[C@H](CC(C)C)NC(=O)[C@@H](NC(=O)[C@@H]1CCCN1C(=O)[C@@H](N)CC(N)=O)C(C)C)[C@@H](C)O)[C@@H](C)O)[C@@H](C)CC)C(=O)O [Peptide 801.02] |  | 0.0541 µM | 20 µM | 0.0631 µM | 0.714 µM | 0.0065 µM | 300 µM | 
YASFVSQTAQRLFY-NH2 [Peptide 717.03] | 2.5 µM | 0.011 µM | 0.008 µM | 0.025 µM | 0.0019 µM | 6.25 µM | 15.8 µM | 
CC(C)C[C@H](NC(=O)[C@@H](NC(=O)[C@H](C)NC(=O)[C@H](C)NC(=O)[C@H](CCCCN)NC(=O)[C@@H](NC(=O)[C@H](Cc1ccccc1)NC(=O)[C@H](CCCCN)NC(=O)[C@@H](C)N)C(C)C)[C@@H](C)O)C(=O)N[C@@H](CCCCN)C(=O)N[C@@H](C)C(=O)N[C@@H](C)C(=O)N[C@H](C)C(N)=O [Peptide 909.02] (H-[dA]KFVKAATLKAA[dA]-NH2) |  |  |  |  |  |  |  | IC50 (DRB1*1101 (DR5w11); read-out: DR5w11 nM, Table VIII, In IC50 Format): 0.0057 µM; IC50 (DRB1*0401 (DR4w4); read-out: DR4w4 nM, Table VIII, In IC50 Format): 0.0047 µM; IC50 (DRB5*0101 (DR2w2a); read-out: DR2w2B2 nM, Table VIII, In IC50 Format): 0.008 µM; IC50 (DRB1*0701 (DR7); read-out: DR7 nM, Table VIII, In IC50 Format): 0.208 µM; IC50 (DRB1*0101 (DR1); read-out: DR1 nM, Table VIII, In IC50 Format): 0.0025 µM; IC50 (DRB10404 (DR4w14); read-out: DR4w14 nM, Table VIII, In IC50 Format): 0.0333 µM; IC50 (DRB1*0301 (DR3w17); read-out: DR3 nM, Table VIII, In IC50 Format): 5.66 µM
YAAYVKLTAARKFA-NH2 [Peptide 806.03] | 0.0013 µM | 0.0214 µM | 0.0007 µM | 0.0044 µM | 0.0021 µM | 4.55 µM | 23.1 µM | 
LSGSHLVEALYLVSGERGFF [Peptide 734.02] | 10 µM | 0.865 µM | 2.86 µM | 0.124 µM | 0.0144 µM | 1.02 µM | 30 µM | 
RLANSLVHSSNNFGAILSS [Peptide 735.03] | 0.202 µM | 0.011 µM | 10 µM | 0.556 µM | 0.0847 µM | 0.0128 µM | 25 µM | 
TSATQRLANSLVHSSNNFG [Peptide 735.02] | 0.13 µM | 0.0054 µM | 10 µM | 0.373 µM | 0.111 µM | 0.0132 µM | 33.3 µM | 
CSCC[C@H](NC(=O)[C@H](CC(C)C)NC(=O)[C@H](CCC(=O)O)NC(=O)CNC(=O)[C@H](Cc1c[nH]c2ccccc12)NC(=O)[C@@H](N)CS)C(=O)N[C@H](C(=O)N[C@@H](CC(C)C)C(=O)N[C@@H](C)C(=O)N[C@H](C(=O)N[C@@H](Cc1c[nH]c2ccccc12)C(=O)N[C@H](C(=O)NCC(=O)N[C@H](C(=O)N[C@@H](CC(N)=O)C(=O)N[C@@H](CC(C)C)C(=O)N[C@@H](CCC(=O)O)C(=O)N[C@@H](CC(=O)O)C(=O)O)C(C)C)C(C)C)[C@@H](C)O)[C@@H](C)O [Peptide 802.02] | 5 µM | 0.738 µM |  | 6.25 µM | 0.357 µM | 0.0907 µM | 100 µM | 
